Broadly, the IC50 is the concentration that gives 50% inhibition.

T1 sequence (P29375 whole entry): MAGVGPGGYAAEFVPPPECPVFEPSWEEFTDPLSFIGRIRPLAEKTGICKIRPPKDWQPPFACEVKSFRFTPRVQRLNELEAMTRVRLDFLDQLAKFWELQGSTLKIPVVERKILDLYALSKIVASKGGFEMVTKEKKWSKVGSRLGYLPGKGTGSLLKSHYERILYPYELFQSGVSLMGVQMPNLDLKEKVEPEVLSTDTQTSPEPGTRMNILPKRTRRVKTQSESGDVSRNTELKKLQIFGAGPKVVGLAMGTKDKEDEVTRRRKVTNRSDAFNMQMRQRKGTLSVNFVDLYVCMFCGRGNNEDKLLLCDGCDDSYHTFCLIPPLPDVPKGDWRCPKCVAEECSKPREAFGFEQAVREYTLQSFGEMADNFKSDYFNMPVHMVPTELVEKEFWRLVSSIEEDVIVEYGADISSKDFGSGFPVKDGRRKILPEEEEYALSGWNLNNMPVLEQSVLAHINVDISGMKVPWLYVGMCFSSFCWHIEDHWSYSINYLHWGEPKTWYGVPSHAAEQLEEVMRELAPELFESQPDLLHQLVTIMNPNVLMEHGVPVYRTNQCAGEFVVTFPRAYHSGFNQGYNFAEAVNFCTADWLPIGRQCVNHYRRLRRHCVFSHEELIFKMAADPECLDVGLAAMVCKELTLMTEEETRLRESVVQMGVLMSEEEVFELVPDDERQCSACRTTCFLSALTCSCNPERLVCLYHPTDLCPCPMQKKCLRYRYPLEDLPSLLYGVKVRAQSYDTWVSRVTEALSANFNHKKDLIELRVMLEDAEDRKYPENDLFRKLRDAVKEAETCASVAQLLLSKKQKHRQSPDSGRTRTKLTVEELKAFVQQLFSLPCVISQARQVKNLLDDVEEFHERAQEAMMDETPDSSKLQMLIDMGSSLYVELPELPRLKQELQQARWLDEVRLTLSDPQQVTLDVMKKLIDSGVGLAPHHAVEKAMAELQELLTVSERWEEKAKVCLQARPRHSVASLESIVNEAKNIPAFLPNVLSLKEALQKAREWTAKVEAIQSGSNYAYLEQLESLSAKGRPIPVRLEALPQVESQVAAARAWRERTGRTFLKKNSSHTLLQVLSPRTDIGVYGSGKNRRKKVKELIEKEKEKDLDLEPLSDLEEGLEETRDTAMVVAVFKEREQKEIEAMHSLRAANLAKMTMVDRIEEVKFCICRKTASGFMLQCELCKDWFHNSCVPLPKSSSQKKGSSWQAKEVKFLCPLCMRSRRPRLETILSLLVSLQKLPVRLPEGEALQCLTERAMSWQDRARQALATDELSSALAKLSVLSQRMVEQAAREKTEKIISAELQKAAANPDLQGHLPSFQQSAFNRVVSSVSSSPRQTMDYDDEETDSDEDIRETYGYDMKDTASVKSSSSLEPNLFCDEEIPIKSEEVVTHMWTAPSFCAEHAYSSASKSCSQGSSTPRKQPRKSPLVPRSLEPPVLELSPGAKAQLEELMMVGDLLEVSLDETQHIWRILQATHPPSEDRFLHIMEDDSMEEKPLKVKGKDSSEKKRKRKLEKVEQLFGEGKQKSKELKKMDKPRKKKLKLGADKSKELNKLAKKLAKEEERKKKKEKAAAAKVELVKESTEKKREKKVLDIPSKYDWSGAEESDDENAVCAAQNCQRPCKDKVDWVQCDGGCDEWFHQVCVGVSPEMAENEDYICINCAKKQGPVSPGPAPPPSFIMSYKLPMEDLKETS

The assay addresses T1, KDM5A (Homo sapiens, UniProt P29375).
T1 construct: Full length recombinant Flag tagged KDM5A protein was purified from Sf9 insect cells; Flag; made in house; host or cells: Sf9 insect cells
The assay is described as follows: KDM5A Demethylase Assay (TR-FRET Assay-B). The format is biochemical. Particulars: full length recombinant Flag tagged KDM5A, 2 nM, TrisCl pH 7.4, 3.0 μM α-ketoglutarate, read-out: B KDM5A HTRF (IC50).
Description: Full length recombinant Flag tagged KDM5A protein was purified from Sf9 insect cells. The demethylation reaction buffer contained 50 mM TrisCl pH 7.4, 0.01% Triton X-100, 0.025 mg/mL BSA, 1 mM ascorbate, 2 mM TCEP, 3.0 μM α-ketoglutarate, and 50 μM Fe2(NH4)2(SO4)2. […] After a one hour incubation assays were read on a Perkin-Elmer Envision equipped with a laser source and appropriate filters.
On to `CCc1[nH]c2c(-c3cnn(-c4ccccn4)c3)cnn2c(=O)c1CC` [Example 63, 5,6-diethyl-3-[1-(2-pyridyl)pyrazol-4-yl]-4H-pyrazolo[1,5-a]pyrimidin-7-one], for which the IC50 was 169 nM.

For the molecule `CCc1c(C)[nH]c2c(-c3cnn(-c4ccc(C)cn4)c3)cnn2c1=O` [Example 65, 6-ethyl-5-methyl-3-[1-(5-methyl-2-pyridyl)pyrazol-4-yl]-4H-pyrazolo[1,5-a]pyrimidin-7-one], the IC50 came out at 5.1 nM.

As to `Cc1[nH]c2c(-c3cnn(-c4ncccn4)c3)cnn2c(=O)c1C1CC1` [Example 29, 6-cyclopropyl-5-methyl-3-(1-(pyrimidin-2-yl)-1H-pyrazol-4-yl)pyrazolo[1,5-a]pyrimidin-7(6H)-one], the IC50 is 18.5 nM.

On to `CCc1c(C)[nH]c2c(-c3cnn(C(=O)C(C)(C)C)c3)cnn2c1=O` [Example 35, 6-ethyl-5-methyl-3-(1-pivaloyl-1H-pyrazol-4-yl)pyrazolo[1,5-a]pyrimidin-7(4H)-one], for which the IC50 is 543 nM.

Consider `Cc1[nH]c2c(-c3cnn(-c4ccccn4)c3)cnn2c(=O)c1F` [Example 62, 6-fluoro-5-methyl-3-[1-(2-pyridyl)pyrazol-4-yl]-4H-pyrazolo[1,5-a]pyrimidin-7-one], for which the IC50 turned out to be 212 nM.

With `CCc1c(C)[nH]c2c(-c3cnn(-c4ccc(CO)cn4)c3)cnn2c1=O` [Example 12, 6-ethyl-3-(1-(5-(hydroxymethyl)pyridin-2-yl)-1H-pyrazol-4-yl)-5-methylpyrazolo[1,5-a]pyrimidin-7(4H)-one], the IC50 was determined as 31.3 nM.

`COc1c(C)[nH]c2c(-c3cnn(-c4ccccn4)c3)cnn2c1=O` [Example 40, 6-methoxy-5-methyl-3-(1-(pyridin-2-yl)-1H-pyrazol-4-yl)pyrazolo[1,5-a]pyrimidin-7(4H)-one]: the IC50 amounted to 101 nM.

Regarding `CCc1c(C)[nH]c2c(-c3cnn(C(=O)OC)c3)cnn2c1=O` [Example 36, Methyl 4-(6-ethyl-5-methyl-7-oxo-4,7-dihydropyrazolo[1,5-a]pyrimidin-3-yl)-1H-pyrazole-1-carboxylate], the IC50 is 1000 nM.

Consider `CCc1c(C)[nH]c2c(-c3cnn(-c4cc(OCCO)ccn4)c3)cnn2c1=O` [Example 17, 6-ethyl-3-(1-(4-(2-hydroxyethoxy)pyridin-2-yl)-1H-pyrazol-4-yl)-5-methylpyrazolo[1,5-a]pyrimidin-7(4H)-one], for which the concentration for half-maximal inhibition (IC50) worked out at 14.1 nM.

For `Cc1[nH]c2c(-c3cnn(-c4ccccn4)c3)cnn2c(=O)c1C#N` [Example 64, 5-methyl-7-oxo-3-[1-(2-pyridyl)pyrazol-4-yl]-4H-pyrazolo[1,5-a]pyrimidine-6-carbonitrile], the IC50 is 830 nM.

Consider `CCc1c(C)[nH]c2c(-c3cnn(-c4ccncn4)c3)cnn2c1=O` [Example 3, 6-ethyl-5-methyl-3-(1-(pyrimidin-4-yl)-1H-pyrazol-4-yl)pyrazolo[1,5-a]pyrimidin-7(4H)-one], for which the IC50 was found to be 158 nM.

Take `Cc1[nH]c2c(-c3cnn(-c4ccc(CO)cn4)c3)cnn2c(=O)c1C(C)C` [Example 25, 3-(1-(5-(hydroxymethyl)pyridin-2-yl)-1H-pyrazol-4-yl)-6-isopropyl-5-methylpyrazolo[1,5-a]pyrimidin-7(4H)-one]: the IC50 is 6.6 nM.

`Cc1cc(=O)n2ncc(-n3cnc(-c4ccccn4)c3)c2[nH]1` [Example 49, 5-Methyl-3-(4-(pyridin-2-yl)-1H-imidazol-1-yl)pyrazolo[1,5-a]pyrimidin-7(4H)-one]: the IC50 turned out to be 43.7 nM.

As to `Cc1[nH]c2c(-c3cnn(-c4ccc(CO)cn4)c3)cnn2c(=O)c1C1CC1` [Example 32, 6-cyclopropyl-3-(1-(5-(hydroxymethyl)pyridin-2-yl)-1H-pyrazol-4-yl)-5-methylpyrazolo[1,5-a]pyrimidin-7(6H)-one], the IC50 turned out to be 7.9 nM.

On to `CCc1c(C)[nH]c2c(-c3cnn(C(=O)N(C)C)c3)cnn2c1=O` [Example 34, 4-(6-ethyl-5-methyl-7-oxo-4,7-dihydropyrazolo[1,5-a]pyrimidin-3-yl)-N,N-dimethyl-1H-pyrazole-1-carboxamide], for which the IC50 is 4180 nM.

Take `Cc1[nH]c2c(-c3cnn(-c4ccccn4)c3)cnn2c(=O)c1C` [Example 61, 5,6-dimethyl-3-[1-(2-pyridyl)pyrazol-4-yl]-4H-pyrazolo[1,5-a]pyrimidin-7-one]: the IC50 was determined as 66.1 nM.

With `CCc1[nH]c2c(-c3cnn(-c4ccccn4)c3)cnn2c(=O)c1C` [Example 37, 5-ethyl-6-methyl-3-(1-(pyridin-2-yl)-1H-pyrazol-4-yl)pyrazolo[1,5-a]pyrimidin-7(4H)-one], the IC50 was 335 nM.

For `Cc1cnc(-n2cc(-c3cnn4c(=O)c(C5CC5)c(C)[nH]c34)cn2)nc1` [Example 31, 6-cyclopropyl-5-methyl-3-(1-(5-methylpyrimidin-2-yl)-1H-pyrazol-4-yl)pyrazolo[1,5-a]pyrimidin-7(6H)-one], the IC50 worked out at 48.7 nM.

Consider `Cc1ccc(-n2cc(-c3cnn4c(=O)c(C(C)C)c(C)[nH]c34)cn2)nc1` [Example 21, 6-isopropyl-5-methyl-3-(1-(5-methylpyridin-2-yl)-1H-pyrazol-4-yl)pyrazolo[1,5-a]pyrimidin-7(4H)-one], for which the IC50 came to 9.1 nM.

For `CCc1c(CO)[nH]c2c(-c3cnn(-c4ccccn4)c3)cnn2c1=O` [Example 41, 6-ethyl-5-(hydroxymethyl)-3-(1-(pyridin-2-yl)-1H-pyrazol-4-yl)pyrazolo[1,5-a]pyrimidin-7(4H)-one], the IC50 came to 4.1 nM.

`CCc1c(C)[nH]c2c(-c3cnn(-c4nccc(OC)n4)c3)cnn2c1=O` [Example 7, 6-ethyl-3-(1-(4-methoxypyrimidin-2-yl)-1H-pyrazol-4-yl)-5-methylpyrazolo[1,5-a]pyrimidin-7(4H)-one]: the IC50 was 8.6 nM.

As for `CCc1c(C)[nH]c2c(-c3cnn(-c4ncccn4)c3)cnn2c1=O` [Example 14, 6-ethyl-5-methyl-3-(1-(pyrimidin-2-yl)-1H-pyrazol-4-yl)pyrazolo[1,5-a]pyrimidin-7(4H)-one], the IC50 turned out to be 16.5 nM.

As to `Cc1ccnc(-n2cc(-c3cnn4c(=O)c(C(C)C)c(C)[nH]c34)cn2)c1` [Example 22, 6-isopropyl-5-methyl-3-(1-(4-methylpyridin-2-yl)-1H-pyrazol-4-yl)pyrazolo[1,5-a]pyrimidin-7(4H)-one], the IC50 is 23.6 nM.

Turning to `Cc1[nH]c2c(-c3cnn(-c4ccccn4)c3)cnn2c(=O)c1Cl` [Example 43, 6-chloro-5-methyl-3-[1-(2-pyridyl)pyrazol-4-yl]-4H-pyrazolo[1,5-a]pyrimidin-7-one], the IC50 worked out at 60.5 nM.

Regarding `CCc1c(C)[nH]c2c(-c3cnn(-c4cc(C5CC5)ccn4)c3)cnn2c1=O` [Example 9, 3-(1-(4-cyclopropylpyridin-2-yl)-1H-pyrazol-4-yl)-6-ethyl-5-methylpyrazolo[1,5-a]pyrimidin-7(4H)-one], the IC50 was 16.6 nM.

Take `Cc1c(C(C)C)[nH]c2c(-c3cnn(-c4ccccn4)c3)cnn2c1=O` [Example 38, 5-isopropyl-6-methyl-3-(1-(pyridin-2-yl)-1H-pyrazol-4-yl)pyrazolo[1,5-a]pyrimidin-7(4H)-one]: the IC50 was determined as 1000 nM.

With `CCc1c(C)[nH]c2c(-c3cnn(-c4cc(Cl)ccn4)c3)cnn2c1=O` [Example 13, 3-(1-(4-chloropyridin-2-yl)-1H-pyrazol-4-yl)-6-ethyl-5-methylpyrazolo[1,5-a]pyrimidin-7(4H)-one], the IC50 is 66.1 nM.

Regarding `CCc1c(C)[nH]c2c(-c3cnn(-c4cc(CO)ccn4)c3)cnn2c1=O` [Example 11, 6-ethyl-3-(1-(4-(hydroxymethyl)pyridin-2-yl)-1H-pyrazol-4-yl)-5-methylpyrazolo[1,5-a]pyrimidin-7(4H)-one], the IC50 worked out at 2.3 nM.

Regarding `CCc1c(C)[nH]c2c(-c3cnn(C(C)=O)c3)cnn2c1=O` [Example 33, 3-(1-acetyl-1H-pyrazol-4-yl)-6-ethyl-5-methylpyrazolo[1,5-a]pyrimidin-7(4H)-one], the IC50 came out at 196 nM.

As for `CCc1c(C)[nH]c2c(-c3cnn(-c4nccc(N(C)C)n4)c3)cnn2c1=O` [Example 4, 3-(1-(4-(dimethylamino)pyrimidin-2-yl)-1H-pyrazol-4-yl)-6-ethyl-5-methylpyrazolo[1,5-a]pyrimidin-7(4H)-one], the IC50 came to 47 nM.

`Cc1ccnc(-n2cc(-c3cnn4c(=O)c(C5CC5)c(C)[nH]c34)cn2)n1` [Example 30, 6-cyclopropyl-5-methyl-3-(1-(4-methylpyrimidin-2-yl)-1H-pyrazol-4-yl)pyrazolo[1,5-a]pyrimidin-7(6H)-one]: the IC50 amounted to 4.8 nM.

For `CCc1c(C)[nH]c2c(-c3cnn(-c4nccs4)c3)cnn2c1=O` [Example 8, 6-ethyl-5-methyl-3-(1-(thiazol-2-yl)-1H-pyrazol-4-yl)pyrazolo[1,5-a]pyrimidin-7(4H)-one], the IC50 came to 136 nM.

Take `CCc1c(C)[nH]c2c(-c3cnn(-c4cc(N(C)C)ccn4)c3)cnn2c1=O` [Example 16, 3-(1-(4-(dimethylamino)pyridin-2-yl)-1H-pyrazol-4-yl)-6-ethyl-5-methylpyrazolo[1,5-a]pyrimidin-7(4H)-one]: the IC50 worked out at 406 nM.

In the case of `CCc1c(C)[nH]c2c(-c3cnn(-c4cc(OCCN)ccn4)c3)cnn2c1=O` [Example 18, 3-(1-(4-(2-aminoethoxy)pyridin-2-yl)-1H-pyrazol-4-yl)-6-ethyl-5-methylpyrazolo[1,5-a]pyrimidin-7(4H)-one], the IC50 was found to be 9.8 nM.

With `Cc1ccnc(-n2cc(-c3cnn4c(=O)c(C(C)C)c(C)[nH]c34)cn2)n1` [Example 23, 6-isopropyl-5-methyl-3-(1-(4-methylpyrimidin-2-yl)-1H-pyrazol-4-yl)pyrazolo[1,5-a]pyrimidin-7(4H)-one], the IC50 worked out at 54.3 nM.

For the molecule `Cc1[nH]c2c(-c3cnn(-c4ccccn4)c3)cnn2c(=O)c1C(C)C` [Example 20, 6-isopropyl-5-methyl-3-(1-(pyridin-2-yl)-1H-pyrazol-4-yl)pyrazolo[1,5-a]pyrimidin-7(4H)-one], the IC50 is 8.3 nM.

With `Cc1cnc(-n2cc(-c3cnn4c(=O)c(C(C)C)c(C)[nH]c34)cn2)nc1` [Example 24, 6-isopropyl-5-methyl-3-(1-(5-methylpyrimidin-2-yl)-1H-pyrazol-4-yl)pyrazolo[1,5-a]pyrimidin-7(4H)-one], the IC50 was found to be 16.6 nM.

These data come from patent US9505767B2, “Pyrazolo[1,5-A]pyrimidin-7(4H)-onehistone demethylase inhibitors” (Genentech, Inc., priority 2013, dated 2016).
